# Laboratory results as given in patent US20220143050A1, “mTOR Inhibitor” (priority 2019, published 2022).
# Counter-ions that a name gives are not always drawn.
# Experiments:
# [1] = test system: MSK-1; assay: Phosphorylation of MSK-1 in LPS-stimulated CD14+ monocyte (western blot); settings: 10 μM, 2 hours, 100 ng/mL LPS, 30 minutes after LPS, FIG. 4B
# [2] = test system: Akt; assay: Phosphorylation of Akt in LPS-stimulated CD14+ monocyte (western blot); type: cell-based, human; settings: 100 ng/mL LPS
# [3] = test system: LPS-stimulated peripheral blood mononuclear cell (PBMC); assay: Regulation of cytokine profile in LPS-stimulated PBMC (BioPlex / ELISA); type: cell-based, human; settings: for IL-10 production (ELISA) / IL-12p70 production (ELISA): PBMC pretreated 2 hours at various concentrations, 100 ng/mL LPS, supernatant 24 hours after LPS
# Text: A peripheral blood mononuclear cell (PBMC) was separated from blood collected from a healthy volunteer (HV) and a chronic hepatitis B patient by a concentration gradient method. CD3+ T cell, CD19+B cell, CD56+NK cell, and CD14+ monocyte were respectively separated using magnetic antibodies.
# [4] = test system: liver cancer cell lines (HepG2, PLC/PRF/5, Huh7, Hep3B, SKHep-1, HLE); assay: Antitumor effect in liver cancer cell lines, intracellular ATP amount (CellTiter-Glo); type: cell-based; settings: cultured 72 hours, all of the cell lines; FIG. 12
# [5] = test system: HepG2; assay: Subcutaneous HepG2 tumor in immunodeficient mice (NOD-SCID); type: in vivo, mouse; settings: 90 mg/kg intraperitoneally every 3 days; for subcutaneous tumor diameter: measured 6 weeks after, vs DMSO group, p<0.05 or p<0.005, data not disclosed
# Protocol: 90 mg/kg of DMSO (negative control), ETV, ADV, and TDF were intraperitoneally administered to 6-week-old immunodeficient mice (NOD-SCID), respectively (5 animals in each of the groups), HepG2 (5×10^6 cells) was subcutaneously administered 1 week after the start of administration, and the subcutaneous tumor diameter was measured 6 weeks thereafter. Each drug was intraperitoneally administered every 3 days from the start to the end of observation.
# [6] = test system: human liver cancer cell line (HepG2); assay: Phosphorylation of mTOR pathway proteins in HepG2 (western blot); type: cell-based; settings: for phosphorylation of Akt and S6K and 4-EBP downstream thereof: HepG2, western blot
# Protocol: After culturing the human liver cancer cell line (HepG2) in LAM, ETV, ADV, and TDF, phosphorylation of Akt in the mTOR pathway and S6K and 4-EBP downstream thereof was analyzed by western blot. Then, the phosphorylation of the above-mentioned proteins was suppressed in ADV and TDF in a dose-dependent manner, but there was no change in LAM and ETV.
# [7] = biological target: Akt1 (Homo sapiens, UniProt P31749); assay: Surface plasmon resonance analysis of binding to Akt; settings: Akt1 fixed on CM5 sensor chip, 25° C.; FIG. 7C
# Sequence of Akt1 (P31749 whole entry): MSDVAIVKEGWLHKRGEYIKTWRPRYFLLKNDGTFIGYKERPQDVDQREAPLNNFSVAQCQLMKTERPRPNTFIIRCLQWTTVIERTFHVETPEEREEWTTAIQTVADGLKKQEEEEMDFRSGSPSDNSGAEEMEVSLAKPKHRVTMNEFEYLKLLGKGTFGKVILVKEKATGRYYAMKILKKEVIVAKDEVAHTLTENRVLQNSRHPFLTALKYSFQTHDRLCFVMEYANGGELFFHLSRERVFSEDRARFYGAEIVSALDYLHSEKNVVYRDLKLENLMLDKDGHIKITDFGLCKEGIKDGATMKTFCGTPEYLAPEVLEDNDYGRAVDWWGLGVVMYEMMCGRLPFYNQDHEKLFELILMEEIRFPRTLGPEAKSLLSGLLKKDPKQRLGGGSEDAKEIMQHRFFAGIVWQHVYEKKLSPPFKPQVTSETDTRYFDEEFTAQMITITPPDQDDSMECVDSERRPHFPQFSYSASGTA
# Protocol: The binding affinity of the peptide for the compound was analyzed using a surface plasmon resonance biosensor (Biacore X 100, GE Healthcare). Akt1 or BSA was fixed on the surface of a CM5 sensor chip using an amine coupling kit (GE Healthcare). Compounds at different concentrations, which were diluted with phosphate buffered saline containing 5% DMSO (10 mM phosphate buffer, 2.7 mM KCl, 137 mM NaCl, 0.05% surfactant P20, pH 7.4), were injected into the sensor chip at a flow rate of 20 μL/min at 25° C. for 120 seconds, and subsequently a buffer solution not containing the compounds was applied for 180 seconds. Kinetic parameters were determined by subtracting the bulk effect of DMSO using a reference flow cell and analyzing the data using Biacore X100 evaluation software (GE Healthcare).
# [8] = test system: ERK; settings: CD14+ monocyte, 10 μM, 2 hours, 100 ng/mL LPS, 30 minutes after LPS; FIG. 4B
# [9] = test system: CD14+ monocyte transfected with rictor siRNA; assay: IL-10 production in CD14+ monocyte after silencing rictor (mTORC2) by siRNA; type: cell-based, human; settings: pretreated 2 hours, 100 ng/mL LPS, ELISA 24 hours after LPS, FIG. 10
# Protocol: The results of confirming the expression levels of rictor, raptor, and β-actin 48 hours after transfection are shown. […] Chemically synthesized nucleotide siRNA including control siRNA was obtained from Santa Cruz (Dallas, Tex., USA). A cell was transfected with siRNA using a Nucleofector kit (Lonza, Cologne, Germany).
# [10] = test system: PTEN; assay: PTEN and pPTEN expression in CD14+ monocyte (western blot of cytosol and nuclear fractions); type: cell-based, human; settings: pretreated 2 hours, FIG. 9
# Text: The results obtained by further fractionating the cell into a cytosol fraction and a nuclear fraction, and performing western blot analysis on each of the obtained fractions are shown. Poly-ADP-ribose polymerase (PARP) is the internal control of a nuclear protein, and β-actin is the internal control of the cytosol fraction. The number n is at least 3.
# For the separation of the cytoplasm and the cell membrane, a MEM-PERTMPlus cell membrane protein extraction kit was used, and the protocol indicated by the product was followed. Briefly speaking, the collected cell was washed and then reacted with a buffer (to perforate the cell membrane) at 4° C. for 10 minutes. After centrifuging at 16,000 g for 15 minutes, the supernatant was collected in a new tube (cytoplasmic component). The precipitate (cell membrane) in the tube in the previous step was washed once with the above-mentioned buffer, and then reacted with a cell membrane melting buffer at 4° C. for 30 minutes while occasionally applying vibration. Thereafter, after centrifuging at 16,000 g for 15 minutes, the supernatant was collected in a new tube (cell membrane component). The cytoplasmic and nuclear components were separated using a cytoplasm/nuclear extraction kit. […]
# [11] = test system: GSK-3β; assay: Phosphorylation of GSK-3β in LPS-stimulated CD14+ monocyte (western blot); type: cell-based, human; settings: 2 hours treatment, 100 ng/mL LPS, 2 hours after LPS, FIG. 4E
# [12] = test system: mouse liver cancer cell lines (MHCF1 and MHCF5) and a mouse colon cancer cell line (CMT-93); assay: Phosphorylation of Akt and GSK-3β in mouse cancer cell lines (western blot); type: cell-based; settings: MHCF1, MHCF5 and CMT-93, western blotting; data not disclosed
# [13] = test system: intestinal cell; settings: in vitro system; cited from earlier work
# [14] = test system: HT1080 cell stably expressing Akt 2-PH-EGFP; assay: Transition of Akt to the cell membrane, fluorescent immunochemical staining / confocal microscope; type: cell-based; settings: treated 2 hours, FIG. 7B
# Protocol: AKT2-PH-EGFP tagged with HA was inserted into a pCSII-EF1α-MCS-IRES2-Blasticidin lentivirus vector. The lentivirus was infected with a HT1080 cell, and the cell was cultured in a DMEM solution containing […] of blasticidin. For observation of the intracellular migration of PH-EGFP, phosphorylated Akt, and Akt-PH-EGFP, after culturing HT1080 cell expressing each of them on a cover glass with DMSO, LAM, ADV, ETV, and TDF for 2 hours, the cell was fixed with 3.7% formalin, and thereafter nuclear staining of phosphorylated AKt (S473) and DAPI were performed to observe under a microscope.
# [15] = test system: phosphatidylinositol-3 kinase and phosphoinositide-dependent kinase 1; assay: Phosphorylation of proteins upstream of Akt in LPS-stimulated CD14+ monocyte (western blot); settings: pretreated 2 hours, 100 ng/mL LPS, 2 hours after LPS, FIG. 7A
# Protocol: An Akt inhibitor 2 (Akt-1/2) and bovine serum albumin (BSA) were respectively used as a positive control and a negative control.
# The phosphorylation of several proteins upstream of Akt, such as phosphatidylinositol-3 kinase and phosphoinositide-dependent kinase 1, was analyzed.
# [16] = test system: LPS-stimulated PBMC; settings: PBMC treated ex vivo with nucleic acid analog, IFN-α and LPS; FIG. 2
# Protocol: In the case of interferon (IFN)-α alone, 10, 100, and 1000 U/mL were used.
# Many types of cytokines in the culture supernatant were measured using a Bio-Plex Human Cytokine Panel (which enables measurement at one time).
# Ex vivo treatment of the PBMC was performed with a nucleic acid analog, IFN-α, and LPS, and the levels of IL-10 and IL-12p70 in the supernatant were measured.
# [17] = test system: p70S6K; assay: Phosphorylation of p70S6K in LPS-stimulated CD14+ monocyte (western blot); settings: 100 ng/mL LPS, cell collected 2 hours after LPS, FIG. 4C
# [18] = test system: IFN-λ3; settings: hepatitis B patients taking the drug; cited from earlier work
# [19] = test system: Akt; assay: Phosphorylation of Akt in LPS-stimulated PBMC (western blot); type: cell-based, human; settings: various concentrations, cell recovered 2 hours after LPS, FIG. 7E
# [20] = PBMC from HV, pretreated 2 hours with nucleic acid analog, then LPS, BioPlex cytokine assay, FIG. 1A
smiles,measurement,setting,value
Oc1ccc(-c2nc(-c3ccncc3)c(-c3ccc(F)cc3)[nH]2)cc1 [SB202198],phosphorylation of MSK-1,[1],inhibited
"NC(=O)c1ncn([C@@H]2O[C@H](CO)[C@@H](O)[C@H]2O)c1N [AICAR, 5-Aminoimidazole-4-carboxamide-1-β-D-ribofuranoside]",phosphorylation of Akt,"[2]; CD14+ monocyte pretreated 2 hours at various concentrations, 2 hours after LPS, FIG. 11B",enhanced phosphorylation of Akt in a dose-dependent manner
same,IL-10 production (ELISA),[3],inhibited
same,IL-12p70 production (ELISA),[3],induced
"C=C1[C@H](CO)[C@@H](O)C[C@@H]1n1cnc2c(=O)[nH]c(N)nc21 [ETV, entecavir]",number of a survived cell (intracellular ATP amount),[4],not recognized
same,"LPS-induced cytokine production (IL-10, IL-12p70, and TNF-α) compared with DMSO",[3]; [20],only the same effect as that of DMSO
same,subcutaneous tumor diameter,[5],not different
same,phosphorylation of Akt and S6K and 4-EBP downstream thereof,[6],no change
"C[C@H](Cn1cnc2c(N)ncnc21)OCP(=O)(O)OP(=O)(O)O [TFV, tenofovir monophosphate]",binding to the Akt protein (surface plasmon resonance biosensor),[7],bound to the Akt protein in a dose-dependent manner
N#CC(=C(/N)Sc1ccccc1N)/C(C#N)=C(\N)Sc1ccccc1N [U0126],phosphorylation of ERK,[8],inhibited
"CC(C)OC(=O)OCOP(=O)(CO[C@H](C)Cn1cnc2c(N)ncnc21)OCOC(=O)OC(C)C [TDF, tenofovir disoproxil fumarate]",restoration of the decrease in IL-10 levels by silencing rictor,[9],not restored
same,PTEN or pPTEN expression level,[10],did not affect
same,phosphorylation of GSK-3β,[11],inhibited
same,phosphorylation of mTOR-related protein (Akt and GSK-3β (S9)),[12],not recognized
same,IFN-λ3 induction,[13],induces
same,transposition of Akt-PH to the cell membrane,"[14]; HT1080 cell, confocal microscope",significantly inhibited
same,phosphorylation of Akt (Ser 473) in HT-1080 cell,"[14]; HT-1080 cell, anti-phospho-Akt staining",inhibited
same,"phosphorylation of Akt, dose dependence","[2]; CD14+ monocyte, 1:3 dilution, FIG. 4D",inhibited the phosphorylation of Akt in a dose-dependent manner
same,phosphorylation of Akt,"[2]; CD14+ monocyte, cell collected 2 hours after LPS, FIG. 4C",inhibited
same,phosphorylation of proteins upstream of Akt (phosphatidylinositol-3 kinase and phosphoinositide-dependent kinase 1),[15],did not inhibit
same,number of a survived cell (intracellular ATP amount),[4],significantly reduced
same,LPS-mediated IL-12p70 production in combination with IFN-α,[16],synergistically enhanced
same,"dose dependence of the regulation of IL-12p70, IL-10 and TNF-α","[3]; LPS-stimulated PBMC, 1:3 dilution, FIG. 1C",dose dependent
same,LPS-induced IL-10 production,[3]; [20],inhibited
same,LPS-induced IL-12p70 production,[3]; [20],significantly induced
same,LPS-induced TNF-α production,[3]; [20],significantly induced
same,phosphorylation of p70S6K,[17],inhibited
same,serum IFN-λ3 value,[18],high value
same,tumor growth in one example of the group,[5],did not grow at all
same,subcutaneous tumor diameter,[5],suppressed
same,phosphorylation of Akt and S6K and 4-EBP downstream thereof,[6],suppressed
same,phosphorylation of mTOR-related protein (Akt and GSK-3β (S9)),"[6]; HepG2 cell, western blotting, data not disclosed",suppressed
CCCCCCCCCCCCCCCCCCOP(=O)([O-])OC1CC[N+](C)(C)CC1 [perifosine],IL-10 production (ELISA),[3],decreased
same,IL-12p70 production (ELISA),[3],increased
same,phosphorylation of Akt,[19],inhibited phosphorylation of Akt in a dose-dependent manner
